The source of these data is article PMC6835155, “Lessons from LIMK1 enzymology and their impact on inhibitor design” (Biochemical Journal, 2019).

For one test, the system named is LIMK1. The following applies: cited from earlier work.
Test [1] concerns the target T1, LIMK1KD (Homo sapiens, UniProt P53667).
T1 construct: His6 (N, cleaved yes); made in house; host or cells: baculovirus; Sf9 for virus, TriEx insect cells for expression
The experiment in a line: RapidFire mass spec kinase activity assay (CFL1 phosphorylation). The following applies: 40 nM LIMK1KD, 2 µM CFL1, 800 µM ATP, 60 min; read-out: LIMK1 IC50. The format is biochemical.

The next test has as its target T2, LIMK2KD (Homo sapiens, UniProt P53671).
T2 construct: The cDNA coding for LIMK2 residues 330 to 632 was PCR amplified; His6 (N, cleaved yes); made in house; host or cells: baculovirus; Sf9 for virus, TriEx insect cells for expression
In words: Differential (dynamic) scanning fluorimetry (DSF) assay, LIMK2KD. The following applies: LIMK2KD, compound 10 µM, single shot; for ΔTm at 10 µM: read-out: TM Shift LIMK2 (K). The format is binding.

Test [2] deals with T1, LIMK1KD. In words: Differential (dynamic) scanning fluorimetry (DSF) assay, LIMK1KD. It counts as binding. The note with it: 2 µM LIMK1KD, compound 10 µM, single shot; for ΔTm at 10 µM: read-out: TM Shift LIMK1 (K).

pIC50: −log10 of the molar value. Counter-ions that a name gives are not always drawn. Like-named read-outs stand apart in the source and are kept apart here.

T1 sequence (P53667 330-637): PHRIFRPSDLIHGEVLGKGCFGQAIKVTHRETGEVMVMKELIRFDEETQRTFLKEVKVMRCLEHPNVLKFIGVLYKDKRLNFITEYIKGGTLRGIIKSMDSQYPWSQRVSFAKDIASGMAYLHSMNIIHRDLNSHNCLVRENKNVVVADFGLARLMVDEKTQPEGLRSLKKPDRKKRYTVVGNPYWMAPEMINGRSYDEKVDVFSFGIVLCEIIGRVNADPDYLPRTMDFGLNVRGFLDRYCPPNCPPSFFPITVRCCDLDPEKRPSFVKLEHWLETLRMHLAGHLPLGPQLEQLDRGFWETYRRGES
T2 sequence (P53671 330-632): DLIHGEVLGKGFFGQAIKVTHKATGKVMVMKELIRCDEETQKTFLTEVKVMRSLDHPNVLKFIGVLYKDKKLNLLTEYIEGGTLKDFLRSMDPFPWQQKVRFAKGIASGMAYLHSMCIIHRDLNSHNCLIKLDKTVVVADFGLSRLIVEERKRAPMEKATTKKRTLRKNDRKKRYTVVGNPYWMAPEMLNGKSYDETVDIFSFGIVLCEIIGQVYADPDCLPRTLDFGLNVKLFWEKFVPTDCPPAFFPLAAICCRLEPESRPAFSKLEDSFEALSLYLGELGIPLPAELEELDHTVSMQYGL

Consider `Cc1c[nH]c2ncnc(N3CCC(CN)(C(=O)Nc4cccc(OC(=O)N(C)C)c4)CC3)c12` [LX-7101], for which the negative logarithm of the IC50 (pIC50) in the test on LIMK1 (read-out: LIMK1 IC50) is 7.49.
For the compound `CC(C)C(=O)Nc1ncc(-c2cc(C(F)F)nn2-c2c(Cl)cccc2Cl)s1` [LIMKi3], the pIC50 in the test on LIMK1 (read-out: LIMK1 in vitro IC50) was […].
Turning to `CNC(=O)c1cc(Oc2ccc(NC(=O)Nc3cc(C(C)(C)C)nn3-c3ccc4ncccc4c3)c(F)c2)ccn1` [DCC-2036 (Rebastinib), Rebastinib], the pIC50 at LIMK1KD [1] is 7.12. In addition, the ΔTm at 10 µM on LIMK2KD was determined as 4.8 °C; at LIMK1KD [2], 10 °C.
On to `Cn1cc(-c2[nH]c3cc(NC(=O)[C@H](N)C4CCCCC4)cc4c3c2C=NNC4=O)cn1` [PF-477736], for which the pIC50 at LIMK1KD [1] is 8.36. Also, the ΔTm at 10 µM on LIMK2KD turned out to be 9 °C. Also, on LIMK1KD [2], the “TM Shift LIMK1 (K)” value was found to be 11 K and the ΔTm at 10 µM was 11.1 °C.
Turning to `CC(C)(C)c1nc(-c2cccc(NS(=O)(=O)c3c(F)cccc3F)c2F)c(-c2ccnc(N)n2)s1` [Dabrafenib (GSK2118436), Dabrafenib], the negative logarithm of the IC50 (pIC50) on LIMK1KD [1] is 7.85. In addition, the “TM Shift LIMK2 (K)” value at LIMK2KD (10 µM) was found to be 11 K. Moreover, the ΔTm at 10 µM on LIMK2KD worked out at 11.1 °C. For the same compound, at LIMK1KD [2], the “TM Shift LIMK1 (K)” value is 10 K and the ΔTm at 10 µM was 10.3 °C.
Take `CC(C)n1nc(-c2ccc3oc(N)nc3c2)c2c(N)ncnc21` [INK 128 (MLN0128)]: the ΔTm at 10 µM was 0.3 °C at LIMK2KD and 1.4 °C at LIMK1KD [2].
Take `Nc1ncnc2c1c(-c1cccc(OCc3ccccc3)c1)cn2[C@H]1C[C@@H](CN2CCC2)C1` [NVP-AEW541]: the values for the ΔTm at 10 µM on LIMK2KD and at LIMK1KD [2] were 0.4 °C and -0.2 °C, respectively.
`O=C1NC(=O)C(=Cc2ccc(-c3ccc(F)cc3)o2)S1` (stereo in doubt) [CAY10505]: on LIMK2KD, the “TM Shift LIMK2 (K)” value amounted to 2.3 K. Moreover, the “TM Shift LIMK1 (K)” value on LIMK1KD [2] is 0.7 K.
As to `Cc1cc2c(F)c(Oc3ncnn4cc(OC[C@@H](C)OC(=O)[C@H](C)N)c(C)c34)ccc2[nH]1` [Brivanib Alaninate (BMS-582664), Brivanib Alaninate], the ΔTm at 10 µM on LIMK2KD came to 0 °C; at LIMK1KD [2], 0.7 °C.
Consider `COc1ccc(COc2cc3oc(=O)c4cc(C(C)O)ccc4c3cc2OC)cc1` (stereo not shown) [Palomid 529 (P529)], for which the “TM Shift LIMK2 (K)” value at LIMK2KD is on record as 10.6 K. Besides, the “TM Shift LIMK1 (K)” value at LIMK1KD [2] turned out to be 0.0 K.
Regarding `[H]/N=C(/N)N/C(=N/[H])NCCc1ccccc1` [Phenformin HCl], the ΔTm at 10 µM on LIMK2KD is 0.6 °C; at LIMK1KD [2], -0.3 °C.
On the same counts, the results for `CCOc1ccn(-c2ccc(F)cc2)c(=O)c1C(=O)Nc1ccc(Oc2ccnc(N)c2Cl)c(F)c1` [BMS-777607] are -0.2 °C and 3.8 °C.
As for `COCC(=O)NC/C=C/c1ccc2ncnc(Nc3ccc(Oc4ccc(C)nc4)c(C)c3)c2c1` [CP-724714], the ΔTm at 10 µM at LIMK2KD is -0.8 °C; on LIMK1KD [2], 0.4 °C.
As to `Nc1ccc(-c2ccc3ncc4ccc(=O)n(-c5cccc(C(F)(F)F)c5)c4c3c2)cn1` [Torin 2], the “TM Shift LIMK2 (K)” value at LIMK2KD is reported as -0.7 K. Also, on LIMK1KD [2], the “TM Shift LIMK1 (K)” value is -1.1 K.
As for `CC[C@@H]1C(=O)N(C)c2cnc(Nc3ccc(C(=O)N[C@H]4CC[C@H](N5CCN(CC6CC6)CC5)CC4)cc3OC)nc2N1C(C)C` [Volasertib (BI 6727), Volasertib], the ΔTm at 10 µM on LIMK2KD worked out at 0.3 °C; at LIMK1KD [2], 0.5 °C.

For orientation: pIC50 means the negative decadic logarithm of the IC50, by convention in mol/L.
